# Laboratory results: patent publication US12605358B2, “Composition for preventing or treating nervous system diseases comprising compound that inhibits mTOR signaling pathway as active ingredient” (ALIAD BIOPHARMA, priority 2021, dated 2026)
# Tested on: primary cultured hippocampal neurons
# Test: LC3-eGFP puncta formation assay (autophagy promotion)
# Format: cell-based, rat
# Conditions: rapamycin and HN-1703 at 0.1 μM and 0.5 μM respectively, 12 hours; FIG. 3A
# Description: Primary neurons culture was performed from the hippocampus of rat (SD, Orient Bio) embryonic 16-day (E16) embryos. The left and right hemispheres of the extracted brain were separated using sterile tweezers under a dissecting microscope, the meninges were peeled off, the hippocampus was cut with No. 55 tweezers, and neural progenitor cells were mechanically dissolved in a Ca^2+/Mg^2+-free HBSS (Invitrogen) solution by pipetting with a pasteur pipette (Falcon, 354647). Undissolved tissues or vascular cells were settled, and then a supernatant was taken to measure the cell number and the isolated cells were seeded at 19,000 cells/cm^2 in a 35 mm culture dish coated with poly-L-ornithine (sigma, P3655) and fibronectin (sigma, F4759). The cells were cultured using a serum-free N2 medium (growth medium) added with 10 ng/mL bFGF (Invitrogen) in a 5% CO2 incubator, and the culture medium was replaced after 6 hours and after 24 hours. After 2 days, when the cells proliferated twice or more, subculture was performed.
# After 3 days of the primary neural progenitor cell culture, a process of subculturing with 0.05% trypsin was repeated twice, and DNA electroporation or transfection was performed before seeding. […]
# The number of cell nuclei labeled with DAPI and the number of cells expressing green fluorescence by overlapping LC3-eGFP expression and DAPI labeling were measured. The number of eGFP-LC3 puncta was measured per cell, and the signal intensity of puncta was measured using a confocal laser microscope program. […]
# The autophagy promoting effect of HN-1703 in neurons differentiated by culturing hippocampal neural progenitor cells from rat embryos (E16) was evaluated by performing an LC3-eGFP puncta formation assay. The neural progenitor cells into which an LC3-eGFP recombinant gene was introduced by electroporation were differentiated into neurons, treated with rapamycin and HN-1703 at concentrations of 0.1 μM and 0.5 μM for 12 hours, respectively, and the puncta of LC3-GFP were scanned with a confocal laser microscope (Zeiss, LSM800) to measure the fluorescence intensity of LC3-eGFP and the number of puncta, and the results were illustrated in FIG. 3. Specifically, FIG. 3A illustrates confocal scanning micrographs of LC3-eGFP puncta formation after treated primary cultured hippocampal neurons overexpressing an LC3-eGFP fusion protein with HN-1703, and quantifying the number and fluorescence intensity of LC3-eGFP puncta per cell, and FIG. 3B illustrates a result of LC3-II turnover analysis.
structure (smiles),measurement,value
"CO[C@H]1C[C@@H]2CC[C@@H](C)[C@@](O)(O2)C(=O)C(=O)N2CCCC[C@H]2C(=O)O[C@H]([C@H](C)C[C@@H]2CC[C@@H](O)[C@H](OC)C2)CC(=O)[C@H](C)/C=C(\C)[C@@H](O)[C@@H](OC)C(=O)[C@H](C)C[C@H](C)/C=C/C=C/C=C/1C [rapamycin, reference compound]",increase of the number of LC3-eGFP puncta compared to a control group,49%
same,increase of the signal intensity of LC3-eGFP puncta compared to the control group,15%
